Consider 6 molecules from US7700657B2, “Vitamin D analogs” (Galderma Research & Development, priority 2001, dated 2010).

Experiment [1] deals with T1, human VDR receptor (Homo sapiens, UniProt P11473).
T1 construct: expressed in transfected cells; host or cells: HeLa
T1 sequence (P11473 1-427): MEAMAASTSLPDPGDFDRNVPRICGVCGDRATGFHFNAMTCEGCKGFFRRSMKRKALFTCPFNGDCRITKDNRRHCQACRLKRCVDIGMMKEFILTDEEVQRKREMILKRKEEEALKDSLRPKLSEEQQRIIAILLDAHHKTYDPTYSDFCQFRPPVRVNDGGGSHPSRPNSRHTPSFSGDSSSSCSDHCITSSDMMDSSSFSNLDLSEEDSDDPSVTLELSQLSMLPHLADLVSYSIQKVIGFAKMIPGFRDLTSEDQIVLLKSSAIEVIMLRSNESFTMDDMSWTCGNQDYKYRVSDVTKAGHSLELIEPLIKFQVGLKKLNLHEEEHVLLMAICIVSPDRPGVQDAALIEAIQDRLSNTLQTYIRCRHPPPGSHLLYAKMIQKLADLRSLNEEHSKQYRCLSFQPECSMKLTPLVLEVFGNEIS
Put plainly: Transactivation potential: VDR agonist activity, HeLa cotransfection with p240Hase-CAT reporter. In kind it is cell-based. As to conditions: dose giving 50% of maximum activity, HeLa cells, 18 hours treatment. The text has this: By way of example, the VDR agonist activity can be tested on the HeLa cell line by cotransfection of an expression vector for the human VDR receptor and of the reporter plasmid p240Hase-CAT. The agonist activity can be characterized in this cotransfection system by the determination of the dose necessary to obtain 50% of the maximum activity of the product (AC50). The detail of the protocol of this test as well as the results obtained with the compounds according to the invention are described in example 7 of the present application.
The VDR agonist activity can be tested on the HeLa cell line, by cotransfection of an expression vector of the human VDR receptor and of the p240Hase-CAT reporter plasmid which contains the region −1399 to +76 of the rat 24-hydroxylase promoter, cloned upstream of the phase coding for the chloramphenicol acetyltransferase (CAT) gene. 18 hours after cotransfection, the test product is added to the medium. After treatment for 18 hours, the measurement of the CAT activity of the cell lysates is carried out by means of an Elisa test (Enzyme Linked Immuno Sorbent Essay, test marketed by Roche Molecular Biochemicals). The agonist activity can be characterized in this cotransfection system by the determination of the dose necessary in order to obtain 50% of the maximum activity of the product (AC50).

Experiment [2] concerns normal human keratinocytes. Put plainly: Inhibition of proliferation of normal human keratinocytes (BrdU incorporation). Particulars: 5 days culture. The experiment is classed as cell-based. Here is the method:
The biological properties analogous to vitamin D can likewise be measured by the capacity of the product to inhibit the proliferation of normal human keratinocytes (NHK in culture). The product is added to NHK cultured under conditions favoring the proliferative state. The product is left in contact with the cells for five days. The number of proliferative cells is measured by incorporation of bromodeoxyuridine (BRdU) into the DNA. The protocol of this test as well as the results obtained with the compounds according to the invention are described in example 8 of the present application.
It is known that 1,25-dihydroxyvitamin D3, called calcitriol and corresponding to natural vitamin D, inhibits the proliferation of human keratinocytes in culture. The method used is the following: the normal human keratinocytes are inoculated at low density into a 24-well plate. After 4 hours, the compounds to be tested are added to the culture medium. After culturing for 5 days, the proliferation of the keratinocytes is determined by incorporation of 5-bromo-2′ deoxyuridine (BrdU) in the DNA. The quantity of BrdU incorporated is then quantified by using the Elisa test (Enzyme Linked Immuno Sorbent Essay, test marketed by Roche Molecular Biochemicals).
The inhibitory effect on the proliferation of the keratinocytes of the compounds according to the invention and of the calcitriol used as a reference compound is summarized in table II which follows.
On the technique in general: Dividing cells build labelled thymidine or BrdU into new DNA.

Experiment [3] relates to HL60 promyelocytic leukemia cells. Kind of experiment: Induction of differentiation of HL60 cells (NBT reduction). The experiment is classed as cell-based. Particulars: 4 days culture, NBT-positive cells, read-out: Activation of Differentiation AC 50. The text has this: The biological properties analogous to vitamin D can likewise be measured by the capacity of the product to induce the differentiation of HL60 promyelocytic leukemia cells. The protocol of this test as well as the results obtained with the compounds according to the invention are described in example 9 of the present application.
Calcitriol induces the differentiation of promyelocytic leukemia cells (HL60) in monocytes/macrophages. This differentiation inductor effect is a well-characterized marker of cellular vitamin D activity. One of the most important antimicrobial products of macrophages is hydrogen peroxide, which can be analyzed experimentally by the reduction of NBT (Nitroblue Tetrazolium).
The method used is the following: The HL60 cells are inoculated into 6-well plates and then treated immediately with the compounds to be tested. After 4 days in culture, the cells are incubated with phorbol TPA ester and NBT for a short period and the differentiated cells, i.e., positive to NBT, are counted.

Experiment [4] deals with 24-hydroxylase. Put plainly: In vivo induction of 24-hydroxylase mRNA in SKH mice after single topical application. Particulars: for Induction in % vs Induction Calcitriol Tested at 0.01%: topical, 8 hours; for MRNA EXPRESSION OF 24-HYDROXYLASE Induction Factor Versus Ethanol: 50 μl, epidermis 8 hours after application. The text has this:
The agonist activity on vitamin D receptors of the compounds of the invention can be likewise evaluated “in vivo” by induction of 24-hydroxylase in SKH mice. (Kang et. al., Journal of Investigative Dermatology, 1997, 108(4), 513-518). The test protocol used as well as the results obtained with the compounds according to the invention are described in example 10 of the present application. 1]:
Consequently, the agonist activity on receptors of vitamin D of the compounds of the invention can be evaluated “in vivo” by induction of 24-hydroxylase in SKH mice.
The method used is the following: […] mice receive a single topical application of a compound to be tested in solution in ethanol at increasing concentrations. A volume of 50 μl of the product to be tested or of the vehicle alone is applied on the back of the mice with the aid of a pipette.
Other SKH mice receive a single topical application of calcitriol in solution in ethanol at increasing concentrations. A volume of 50 μl of the product to be tested or of the vehicle alone is applied on the back of the mice with the aid of a pipette.
8 hours after topical application, the mice are euthanized, the treated skin is removed and the epidermidis is separated from the dermis. The quantification of the MRNA of the 24-Hydroxylase is carried out by semiquantitative PCR. The results are standardized with respect to the expression of the mRNA of GAPDH and the values for the different concentrations of calcitriol tested and, for the different compounds of the invention tested, are expressed as an induction factor with respect to calcitriol.

Where [5] appears, read: compound tested at 0.01% (weight/volume).

pIC50: −log10 of the molar value. Like-named read-outs stand apart in the source and are kept apart here.

By pIC50 is commonly meant the negative decadic logarithm of the IC50, by convention in mol/L. Read a high pIC50 as a small IC50. On to `CC/C(=C\C=C\C(O)(C(F)(F)F)C(F)(F)F)c1cccc(OCc2ccc(CO)c(CO)c2)c1` [Example 3, (3E,5E)-6-[3-(3,4-Bis-hydroxymethylbenzyloxy)pheny]-1,1,1-trifluoro-2 trifluoromethylocta-3,5-dien-2-ol], for which the AC50 in experiment [1] worked out at 7 nM; in experiment [3] (Homo sapiens, HL-60, 96 h), 7 nM. The pIC50 in experiment [2] (Keratinocyte, 120 h) was 7.46. Moreover, the “Induction in % vs Induction Calcitriol Tested at 0.01%” value in experiment [4] (compound tested at 0.001% (weight/volume)) is on record as 59%. The “activity (24-hydroxylase induction) compared with calcitriol” value in experiment [4] (in words) is recorded as “very superior”.

Turning to `CC/C(=C\C#CC(O)(C(F)(F)F)C(F)(F)F)c1cccc(CCc2ccc(CO)c(CO)c2)c1` [Example 4, (E)-6-{3-[2-(3,4-Bis-hydroxymethylphenyl)ethyl]phenyl}-1,1,1-trifluoro-2-trifluoromethyloct-5-en-3-yn-2-ol], the AC50 in experiment [1] is 16 nM. Moreover, the pIC50 in experiment [2] (Keratinocyte, 120 h) is 7.54. In experiment [4] (setting [5]), the “Induction in % vs Induction Calcitriol Tested at 0.01%” value is 89%.

The molecule `CC/C(=C\C#CC(O)(C(F)(F)F)C(F)(F)F)c1cccc(OCc2ccc(CO)c(CO)c2)c1` [Example 2, (E)-6-[3-{3,4-Bis-hydroxymethylbenzyloxy)phenyl]-1,1,1-trifluoro-2-tifluoromethyloct-5-en-3-yn-2-ol] displayed an AC50 in experiment [1] of 77 nM. The molecule also had a pIC50 in experiment [2] (Keratinocyte, 120 h) of 6.82. Also, the “Induction in % vs Induction Calcitriol Tested at 0.01%” value in experiment [4] (setting [5]) is recorded as 58%.

For “1,25-dihydroxyvitamin D3 [Calcitriol, reference compound]”, in experiment [2], the pIC50 was 7.85. The AC50 in experiment [3] was 7 nM. Also, the “Induction in % vs Induction Calcitriol Tested at 0.01%” value in experiment [4] (setting [5]) worked out at 100%. Moreover, the “MRNA EXPRESSION OF 24-HYDROXYLASE Induction Factor Versus Ethanol” value in experiment [4] (topical 0.0001% (weight/volume) in ethanol) was 6.7; in experiment [4] (topical 0.001% (weight/volume) in ethanol) it was 10.3; in experiment [4] (topical 0.01% (weight/volume) in ethanol) it was 20.1; in experiment [4] (topical 0.1% (weight/volume) in ethanol), 26.

On to `CC/C(=C\C=C\C(O)(C(F)(F)F)C(F)(F)F)c1cccc(CCc2ccc(CO)c(CO)c2)c1` [Example 5, (3E,5E)-6-{3-[2-(3,4-Bis-hydroxymethylphenyl)ethyl]-phenyl}-1,1,1-trifluoro-2-trifluoromethylocta-3,5-dien-2-ol], for which the AC50 is 3 nM in experiment [1] and 5 nM in experiment [3] (Homo sapiens, HL-60, 96 h). The same molecule gave a pIC50 in experiment [2] (Keratinocyte, 120 h) of 8.10. Further, in experiment [4] (compound tested at 0.0003% (weight/volume)), the “Induction in % vs Induction Calcitriol Tested at 0.01%” value was 106%.

As for `CC/C(=C\C=C\C(O)(CC)CC)c1cccc(CCc2ccc(CO)c(CO)c2)c1` [Example 1, (4E,6E)-7-{3-[2-(3,4-Bis-hydroxymethylphenyl)ethyl]-phenyl}-3-ethylnona-4,6-dien-3-ol], the AC50 turned out to be 39 nM in experiment [1] and 56 nM in experiment [3] (Homo sapiens, HL-60, 96 h). Besides, the pIC50 in experiment [2] (Keratinocyte, 120 h) was 7.35. For the same molecule, in experiment [4] (compound tested at 0.1% (weight/volume)), the “Induction in % vs Induction Calcitriol Tested at 0.01%” value turned out to be 108%.
